The results in this text go back to US10888551B2, “Drug delivery system” (Indian Institute of Technology, Bombay, priority 2016, dated 2021).

Molecules are shown by their SMILES. Structures can show the parent of a compound that is named as a salt.

In this test the test system is KB cells. The experiment in a line: Cell migration wound healing assay. It counts as cell-based, Human. The note with it: 10 μM, 9 hours.

Regarding `CNC(=O)c1cc(Oc2ccc(NC(=O)Nc3ccc(Cl)c(C(F)(F)F)c3)cc2)ccn1` [Sraf, Sorafenib tosylate], the “retardation of migration of KB cells” value is recorded as 30±9%. The “width of the wound” value (control 525±23 μm at 0 h) was 303±27 μm.
